Data as given in patent US4226775A, “Substituted thio-substituted benzyl-propionyl-L-prolines” (American Cyanamid Company, priority 1979, dated 1980).

These compounds were tested against T1, angiotensin converting enzyme (ACE) (Oryctolagus cuniculus, UniProt P12822) (assay: Spectrophotometric assay for angiotensin converting enzyme inhibitors). Settings: crude ACE extract from rabbit lung; substrate benzoyl-glycyl-histidyl-leucine; 30 minutes at 37° C.; absorbance at 228 nm.
T1 construct: The ACE was extracted from rabbit lung acetane powder (Pel-Freez, Biol. Inc.); tissue Pel-Freez, Biol. Inc; host or cells: rabbit lung acetone powder, crude extract (40,000 g supernatant)
T1 sequence (P12822 34-1310): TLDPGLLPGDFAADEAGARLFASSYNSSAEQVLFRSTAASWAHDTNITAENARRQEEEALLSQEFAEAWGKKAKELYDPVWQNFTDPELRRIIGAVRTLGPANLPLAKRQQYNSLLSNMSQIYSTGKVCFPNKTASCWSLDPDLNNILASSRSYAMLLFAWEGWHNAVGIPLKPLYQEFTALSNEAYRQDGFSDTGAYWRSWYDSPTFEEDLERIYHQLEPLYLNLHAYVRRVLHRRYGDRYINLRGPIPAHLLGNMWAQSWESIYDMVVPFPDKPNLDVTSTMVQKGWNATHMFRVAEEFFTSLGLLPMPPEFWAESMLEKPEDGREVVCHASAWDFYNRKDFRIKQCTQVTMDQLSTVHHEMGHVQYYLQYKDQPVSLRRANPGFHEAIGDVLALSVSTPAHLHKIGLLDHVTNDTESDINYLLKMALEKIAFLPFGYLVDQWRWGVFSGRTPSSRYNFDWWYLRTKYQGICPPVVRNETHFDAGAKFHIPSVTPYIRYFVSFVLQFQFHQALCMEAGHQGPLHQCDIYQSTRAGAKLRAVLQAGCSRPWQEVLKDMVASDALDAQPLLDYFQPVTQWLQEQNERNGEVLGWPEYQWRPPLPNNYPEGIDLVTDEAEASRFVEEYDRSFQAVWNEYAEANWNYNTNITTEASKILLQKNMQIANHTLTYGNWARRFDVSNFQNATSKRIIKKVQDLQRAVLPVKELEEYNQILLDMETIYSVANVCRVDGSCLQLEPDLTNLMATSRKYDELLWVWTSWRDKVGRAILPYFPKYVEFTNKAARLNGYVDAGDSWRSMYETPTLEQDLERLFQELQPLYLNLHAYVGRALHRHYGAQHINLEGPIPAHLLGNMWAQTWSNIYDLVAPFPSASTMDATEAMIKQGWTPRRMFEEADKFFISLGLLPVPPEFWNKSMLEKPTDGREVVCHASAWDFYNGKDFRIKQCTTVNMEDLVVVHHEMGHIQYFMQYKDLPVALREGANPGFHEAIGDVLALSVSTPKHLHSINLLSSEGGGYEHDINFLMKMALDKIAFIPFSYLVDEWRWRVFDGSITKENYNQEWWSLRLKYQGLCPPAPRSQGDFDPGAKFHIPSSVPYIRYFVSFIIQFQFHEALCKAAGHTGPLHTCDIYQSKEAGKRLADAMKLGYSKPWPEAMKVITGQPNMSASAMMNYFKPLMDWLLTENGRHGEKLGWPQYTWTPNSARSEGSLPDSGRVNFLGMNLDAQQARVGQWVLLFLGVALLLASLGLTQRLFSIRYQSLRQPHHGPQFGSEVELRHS
Format: biochemical
Protocol: The activity of the novel compounds of this invention as hypotensive agents was established in two systems which measure their ability as angiotensin converting enzyme inhibitors; namely, a spectrophotometric assay of the compounds in vitro and by the measurement of the blood pressure lowering effect of the compounds in the aorta-coarcted renal hypertensive rats.
The in vitro activity for inhibition of the angiotensin converting enzyme (ACE) was measured by the method of Cushman, D. W. and Cheung, H. S., Biochem. Pharmacol. 20, 1637-1648 (1971), using benzoyl-glycyl-histidyl-leucine as the substrate. The reaction mixture consisted of 50 ml. of potassium phosphate (500 mM., […]), […]. of sodium chloride (2500 mM.), 25 ml. of substrate (50 mM), 30 to 50 ml. of the crude extract of ACE, 10 ml. of test compound (2.5 mM) or vehicle and a suitable amount of distilled water to give a total volume of 250 ml. This reaction mixture was incubated for 30 minutes at 37° C. and the reaction was then terminated by the addition of 250 ml. of 1 N hydrochloric acid. The hippuric acid was then extracted with 1.5 ml. of ethyl acetate by vortex mixing for 15 seconds. After centrifugation, 1 ml. of the ethyl acetate layer was pipetted into a new tube and evaporated to dryness. The extracted hippuric acid was then dissolved in 1 ml. of water and the amount of this acid was then measured by its absorbance at 228 nm. The ACE was extracted from rabbit lung acetane powder (Pel-Freez, Biol. Inc.) by blending 5 g. of the powder in 50 ml. of phosphate buffer (50 mM, pH 8.3) and then centrifuging at 40,000 g for 30 minutes. The supernatant was then kept at 5° C. and used as the enzyme source. The activity of the ACE inhibitor was calculated as the percent inhibition of ACE activity compared to the control value of that particular assay. A full dose-response inhibitory curve is then performed to determine the IC50 value which may be defined as the molar concentration of a compound that will inhibit the ACE activity by 50%.

SMILES	IC50 [nM]
CC(=O)SC(CC(=O)N1CCC[C@H]1C(=O)O)C(=O)c1cccc(F)c1 (stereo partly drawn) [1-[3-Acetylthio-3-(3-fluorobenzoyl)propionyl]-L-proline]	31.6
CC(=O)SC(C(=O)c1cccc(F)c1)C(C)C(=O)N1CCC[C@H]1C(=O)O (stereo partly drawn) [1-[3-Acetylthio-3-(3-fluorobenzoyl)-2-methylpropionyl]-L-proline]	61.7
CC(=O)SC(CC(=O)N1CCC[C@H]1C(=O)O)C(=O)c1ccc(-c2ccccc2)cc1 (stereo partly drawn) [1-[3-Acetylthio-3-(4-biphenylylcarbonyl)propionyl]-L-proline]	86
CC(=O)SC(CC(=O)c1ccccc1)C(=O)N1CCC[C@H]1C(=O)O (stereo partly drawn) [1-(2-Acetylthio-3-benzoylpropionyl)-L-proline]	4230
O=C(c1cnc(SC(CC(=O)N2CCC[C@H]2C(=O)O)C(=O)c2ccc(Cl)cc2)nc1)c1cccs1 (stereo partly drawn) [1-[3-(4-Chlorobenzoyl)-3-[5-(2-thenoyl)-2-pyrimidinylthio]propionyl]-L-proline]	5130
CC(=O)SC(C(=O)c1ccccc1)C(C)C(=O)N1CCC[C@H]1C(=O)O (stereo partly drawn) [1-(3-Acetylthio-3-benzoyl-2-methylpropionyl)-L-proline]	147
CC(=O)SC(CC(=O)N1CCC[C@H]1C(=O)O)C(=O)c1ccc(Br)cc1 (stereo partly drawn) [1-[3-Acetylthio-3-(4-bromobenzoyl)propionyl]-L-proline]	131
CC(=O)S[C@H](C(=O)c1ccccc1)[C@@H](C)C(=O)N1CCC[C@H]1C(=O)O [[S-(R*,R*)]-1-(3-acetylthio-3-benzoyl-2-methylpropionyl)-L-proline]	78
O=C(c1ccccc1)c1cnc(SC(CC(=O)N2CCC[C@H]2C(=O)O)C(=O)c2ccc(Cl)cc2)nc1 (stereo partly drawn) [1-[3-(5-Benzoyl-2-pyrimidinylthio)-3-(4-chlorobenzoyl)propionyl]-L-proline]	2780
CC(=O)SC(CC(=O)N1CCC[C@H]1C(=O)O)C(=O)c1ccc2c(c1)CCC2 (stereo partly drawn) [1-[3-acetylthio-3-(5-indanylcarbonyl)propionyl]-L-proline]	218
CC(=O)SC(CC(=O)N1CCC[C@H]1C(=O)O)C(=O)c1ccc2ccccc2c1 (stereo partly drawn) [1-[3-Acetylthio-3-(2-naphthoyl)propionyl]-L-proline]	130
O=C(SC(CC(=O)N1CCC[C@H]1C(=O)O)C(=O)c1ccc(F)cc1)c1ccccc1 (stereo partly drawn) [1-[3-Benzoylthio-3-(4-fluorobenzoyl)propionyl]-L-proline]	353
CC(=O)S[C@@H](C(=O)c1ccccc1)[C@@H](C)C(=O)N1CCC[C@H]1C(=O)O [[S-(R*,S*)]-1-(3-Acetylthio-3-benzoyl-2-methylpropionyl)-L-proline]	51.5
CC(=O)S[C@@H](C(=O)c1cccc(F)c1)[C@H](C)C(=O)N1CCC[C@H]1C(=O)O [[R-(R*,R*)]-1-[3-acetylthio-3-(3-fluorobenzoyl)-2-methylpropionyl]-L-proline]	16000
COc1ccc(C(=O)C(CC(=O)N2CCC[C@H]2C(=O)O)SC(C)=O)cc1F (stereo partly drawn) [1-[3-Acetylthio-3-(3-fluoro-4-methoxybenzoyl)propionyl]-L-proline]	600
O=C(SC(CC(=O)N1CCC[C@H]1C(=O)O)C(=O)c1cccc(F)c1)c1ccccc1 (stereo partly drawn) [1-[3-Benzoylthio-3-(3-fluorobenzoyl)propionyl]-L-proline]	1760

SMILES	IC50 [nM]
CC(=O)SC(CC(=O)N1CCC[C@H]1C(=O)O)C(=O)c1ccc(C(C)(C)C)cc1 (stereo partly drawn) [1-[3-Acetylthio-3-(4-tert-butylbenzoyl)propionyl]-L-proline]	183
CC(=O)S[C@H](C(=O)c1cccc(F)c1)[C@H](C)C(=O)N1CCC[C@H]1C(=O)O [[R-(R*,S*)]-1-[3-acetylthio-3-(3-fluorobenzoyl)-2-methylpropionyl]-L-proline]	280000
O=C(SC(CC(=O)N1CCC[C@H]1C(=O)O)C(=O)c1ccccc1)c1ccccc1 (stereo partly drawn) [1-(3-Benzoylthio-3-benzoylpropionyl)-L-proline]	513
CC(=O)SC(CC(=O)N1CCC[C@H]1C(=O)O)C(=O)c1cccc(C(F)(F)F)c1 (stereo partly drawn) [1-[3-Acetylthio-3-(3-trifluoromethylbenzoyl)propionyl]-L-proline]	1070
O=C(c1ccc(Br)cc1)C(S)CC(=O)N1CCC[C@H]1C(=O)O (stereo partly drawn) [1-[3-(4-Bromobenzoyl)-3-thiopropionyl]-L-proline]	352
CC(=O)SC(CC(=O)N1CCC[C@H]1C(=O)O)C(=O)c1ccc(F)cc1 (stereo partly drawn) [1-[3-Acetylthio-3-(4-fluorobenzoyl)propionyl]-L-proline]	473
CC(=O)S[C@@H](C(=O)c1ccc(Br)cc1)[C@@H](C)C(=O)N1CCC[C@H]1C(=O)O [[S-(R*,S*)]-1-[3-acetylthio-3-(4-bromobenzoyl)-2-methylpropionyl]-L-proline]	98.5
CC(=O)SC(CC(=O)N1CCC[C@H]1C(=O)O)C(=O)c1ccccc1 (stereo partly drawn) [1-(3-Acetylthio-3-benzoylpropionyl)-L-proline]	455
CC(=O)SC(CC(=O)N1CCC[C@H]1C(=O)O)C(=O)c1ccc(Cl)cc1 (stereo partly drawn) [1-[3-Acetylthio-3-(4-chlorobenzoyl)propionyl]-L-proline]	82.6
O=C(SC(CC(=O)N1CCC[C@H]1C(=O)O)C(=O)c1ccc(Br)cc1)c1ccccc1 (stereo partly drawn) [1-[3-(4-Bromobenzoyl)-3-benzoylthiopropionyl]-L-proline]	115
CC(=O)SC(C(=O)c1ccc(Cl)cc1)C(C)C(=O)N1CCC[C@H]1C(=O)O (stereo partly drawn) [1-[3-Acetylthio-3-(4-chlorobenzoyl)-2-methylpropionyl]-L-proline]	335
CC(=O)S[C@H](C(=O)c1cccc(F)c1)[C@@H](C)C(=O)N1CCC[C@H]1C(=O)O [[S-(R*,R*)]-1-[3-acetylthio-3-(3-fluorobenzoyl)-2-methylpropionyl]-L-proline]	233
CC(=O)S[C@@H](C(=O)c1cccc(F)c1)[C@@H](C)C(=O)N1CCC[C@H]1C(=O)O [[S-(R*,S*)]-1-[3-acetylthio-3-(3-fluorobenzoyl)-2-methylpropionyl]-L-proline]	37
O=C(O)CSC(CC(=O)c1ccccc1)C(=O)N1CCC[C@H]1C(=O)O (stereo partly drawn) [1-[3-Benzoyl-2-(carboxymethylthio)propionyl]-L-proline]	31600
CC(=O)SC(CC(=O)N1CCC[C@H]1C(=O)O)C(=O)c1ccc(Oc2ccc(Cl)cc2)cc1 (stereo partly drawn) [1-{3-Acetylthio-3-[4-(4-chlorophenoxy)benzoyl]-propionyl}-L-proline]	358
CC(=O)S[C@H](C(=O)c1ccc(Br)cc1)[C@@H](C)C(=O)N1CCC[C@H]1C(=O)O [[S-(R*,R*)]-1-[3-acetylthio-3-(4-bromobenzoyl)-2-methylpropionyl]-L-proline]	133
